Reference: US20060106107A1, “L-tartrate salt of N-1-Adamantyl-2-{3-[(2R)-2-({(2R)-2-hydroxy-2-[4-hydroxy-3-(hydroxymethyl)phenyl]ethyl}amino)propyl] phenyl}acetamide” (priority 2004, published 2006)

Molecular target: T1, human β2 adrenergic receptor (Homo sapiens, UniProt P07550)
T1 construct: expressed in transfected cells; host or cells: CHO (Chinese Hamster Ovary) cells, CHOhβ2
Assay: cAMP Flashplate assay in CHO cells recombinantly expressing the human β2 adrenergic receptor (agonist potency)
Format: cell-based
Settings: CHOhβ2 cells, 1 hour incubation, 125I-cAMP Flashplate; data expressed as % Isoprenaline activity, four parameter sigmoid fit
Experimental: According to another alternative, the agonist potency for the β2 receptor of the L-tartrate salt of the invention may also be determined by the measure of the concentration of compound according to the present invention required to produce half maximal effect (EC50) for the β2 receptor.
10 mM/100% DMSO (dimethylsulfoxide) stock of compound is diluted to required top dose in 4% DMSO. This top dose is used to construct a 10-point semi-log dilution curve, all in 4% DMSO. Isoprenaline (Sigma, I-5627) was used as a standard in every experiment and for control wells on each plate. Data was expressed as % Isoprenaline response. […]
25 μl/well each dose of compound was transferred into a cAMP-Flashplate® (NEN, SMP004B), with 1% DMSO as basal controls and 100 nM Isoprenaline as max controls. […] The amount of ^125I-cAMP bound to the Flashplate® was quantified using a Topcount NXT (Packard), normal counting efficiency for 1 minute. Dose-response data was expressed as % Isoprenaline activity and fitted using a four parameter sigmoid fit.

T1 sequence (P07550 whole entry): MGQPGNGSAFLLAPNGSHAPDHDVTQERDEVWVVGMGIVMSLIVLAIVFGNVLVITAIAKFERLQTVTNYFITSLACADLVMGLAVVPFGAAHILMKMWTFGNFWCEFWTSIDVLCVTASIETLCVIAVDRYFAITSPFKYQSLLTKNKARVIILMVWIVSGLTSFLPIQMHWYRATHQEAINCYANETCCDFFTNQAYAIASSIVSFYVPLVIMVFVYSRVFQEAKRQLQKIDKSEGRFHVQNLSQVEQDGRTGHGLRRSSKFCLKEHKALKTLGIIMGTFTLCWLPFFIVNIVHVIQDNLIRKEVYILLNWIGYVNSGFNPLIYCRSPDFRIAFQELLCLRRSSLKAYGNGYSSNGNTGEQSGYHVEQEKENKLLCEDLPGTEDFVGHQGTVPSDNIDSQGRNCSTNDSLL

An EC50 of 0.076 nM was found for `C[C@H](Cc1cccc(CC(=O)NC23CC4CC(CC(C4)C2)C3)c1)NC[C@H](O)c1ccc(O)c(CO)c1` [example 1, N-1-Adamantyl-2-{3-[(2R)-2-({(2R)-2-hydroxy-2-[4-hydroxy-3-(hydroxymethyl)phenyl]ethyl}amino)propyl]phenyl}acetamide L-tartrate] in this work.
